Measurements reported in ChEMBL document CHEMBL5131484, “Design and synthesis of adamantane-1-carbonyl thiourea derivatives as potent and selective inhibitors of h-P2X4 and h-P2X7 receptors: An Emerging therapeutic tool for treatment of inflammation and neurological disorders” (Eur J Med Chem, 2022).

Legend:
[1] = Cytotoxicity against human 1321N1 cells assessed as reduction in cell viability at 50 uM incubated for 24 hrs by MTT assay relative to control; type: functional
HeLa = assay: Cytotoxicity against human HeLa cells assessed as reduction in cell viability at 50 uM incubated for 24 hrs by MTT assay relative to control; type: functional
[2] = target: T1, P2X purinoceptor 2 (Homo sapiens) (UniProt Q9UBL9); assay: Antagonist activity at human P2X2 receptor expressed in human 1321N1 cells assessed as reduction in intracellular Ca2+ influx incubated for 30 mins by Fura-2 AM based fluorescence assay relative to control; type: cell-based
T1 sequence (whole entry): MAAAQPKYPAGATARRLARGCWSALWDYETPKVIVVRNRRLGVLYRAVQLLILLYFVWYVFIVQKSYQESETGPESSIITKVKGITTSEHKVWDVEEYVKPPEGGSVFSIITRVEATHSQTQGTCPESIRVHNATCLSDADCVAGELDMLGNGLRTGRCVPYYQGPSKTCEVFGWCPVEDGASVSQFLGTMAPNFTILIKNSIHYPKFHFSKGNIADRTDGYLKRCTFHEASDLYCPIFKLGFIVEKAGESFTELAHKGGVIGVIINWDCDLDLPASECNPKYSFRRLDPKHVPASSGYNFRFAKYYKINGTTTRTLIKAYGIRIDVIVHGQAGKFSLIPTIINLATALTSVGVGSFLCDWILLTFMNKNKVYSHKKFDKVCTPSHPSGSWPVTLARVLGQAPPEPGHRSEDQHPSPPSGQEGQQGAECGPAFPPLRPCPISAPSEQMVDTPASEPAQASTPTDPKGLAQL

[3] = Cytotoxicity against human HEK293 cells assessed as reduction in cell viability at 50 uM incubated for 24 hrs by MTT assay relative to control; type: toxicity, cell-based; conditions: read-out: INH
[4] = target: T2, P2X purinoceptor 4 (Homo sapiens) (UniProt Q99571); assay: Antagonist activity at human P2X4 receptor expressed in human 1321N1 cells assessed as reduction in intracellular Ca2+ influx incubated for 30 mins by Fura-2 AM based fluorescence assay relative to control; type: cell-based
T2 sequence (whole entry): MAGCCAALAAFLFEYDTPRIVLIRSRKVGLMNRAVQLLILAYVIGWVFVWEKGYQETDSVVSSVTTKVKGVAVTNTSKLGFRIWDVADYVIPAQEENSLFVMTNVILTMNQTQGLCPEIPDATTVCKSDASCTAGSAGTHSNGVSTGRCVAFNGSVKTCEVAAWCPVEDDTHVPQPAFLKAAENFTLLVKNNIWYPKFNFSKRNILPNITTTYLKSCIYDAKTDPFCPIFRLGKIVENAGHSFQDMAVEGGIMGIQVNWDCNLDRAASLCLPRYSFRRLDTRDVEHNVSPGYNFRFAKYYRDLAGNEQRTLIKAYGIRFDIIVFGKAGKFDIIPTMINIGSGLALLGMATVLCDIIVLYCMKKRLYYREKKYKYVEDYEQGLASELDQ

[5] = target: T3, P2X purinoceptor 7 (Homo sapiens) (UniProt Q99572); assay: Antagonist activity at human P2X7 receptor expressed in human 1321N1 cells assessed as reduction in intracellular Ca2+ influx incubated for 30 mins by Fura-2 AM based fluorescence assay relative to control; type: cell-based
T3 sequence (whole entry): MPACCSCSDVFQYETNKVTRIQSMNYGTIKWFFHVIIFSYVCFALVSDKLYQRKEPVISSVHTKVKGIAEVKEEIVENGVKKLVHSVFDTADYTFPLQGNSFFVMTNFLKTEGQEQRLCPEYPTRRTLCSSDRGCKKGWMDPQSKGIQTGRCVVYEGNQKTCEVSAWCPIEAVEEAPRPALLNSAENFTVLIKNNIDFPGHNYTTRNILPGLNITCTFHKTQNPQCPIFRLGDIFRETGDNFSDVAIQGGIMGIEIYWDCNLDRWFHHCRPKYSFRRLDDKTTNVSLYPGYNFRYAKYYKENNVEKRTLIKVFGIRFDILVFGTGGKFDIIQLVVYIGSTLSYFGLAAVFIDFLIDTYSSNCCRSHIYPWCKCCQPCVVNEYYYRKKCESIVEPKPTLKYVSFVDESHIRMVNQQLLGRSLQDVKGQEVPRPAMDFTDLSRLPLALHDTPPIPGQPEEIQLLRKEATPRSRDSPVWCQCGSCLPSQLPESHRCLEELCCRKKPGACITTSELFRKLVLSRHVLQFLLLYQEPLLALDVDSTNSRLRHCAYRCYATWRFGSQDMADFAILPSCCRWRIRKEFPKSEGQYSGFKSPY

P2X purinoceptor 5 [6] = target: T4, P2X purinoceptor 5 (Homo sapiens, UniProt Q93086); assay: Antagonist activity at human P2X5 receptor expressed in human 1321N1 cells assessed as reduction in intracellular Ca2+ influx incubated for 30 mins by Fura-2 AM based fluorescence assay relative to control; type: cell-based
T4 sequence (Q93086 whole entry): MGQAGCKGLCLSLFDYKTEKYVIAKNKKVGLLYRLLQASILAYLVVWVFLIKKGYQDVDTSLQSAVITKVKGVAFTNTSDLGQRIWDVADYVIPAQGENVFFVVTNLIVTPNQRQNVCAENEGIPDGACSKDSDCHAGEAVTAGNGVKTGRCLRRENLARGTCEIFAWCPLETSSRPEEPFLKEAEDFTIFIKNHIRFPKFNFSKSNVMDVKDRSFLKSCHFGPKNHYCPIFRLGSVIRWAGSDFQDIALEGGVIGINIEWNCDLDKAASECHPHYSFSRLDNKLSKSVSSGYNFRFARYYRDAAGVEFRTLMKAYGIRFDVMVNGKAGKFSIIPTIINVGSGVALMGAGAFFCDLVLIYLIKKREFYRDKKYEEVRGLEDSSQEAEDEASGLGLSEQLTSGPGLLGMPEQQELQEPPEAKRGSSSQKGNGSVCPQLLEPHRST

P2X purinoceptor 4 = target: T5, P2X purinoceptor 4 (Homo sapiens, UniProt Q99571); assay: Antagonist activity at human P2X4 receptor expressed in human 1321N1 cells assessed as reduction in intracellular Ca2+ influx incubated for 30 mins by Fura-2 AM based fluorescence assay; type: cell-based
T5 sequence (Q99571 whole entry): T2 sequence (whole entry)

P2X purinoceptor 5 [7] = target: T4, P2X purinoceptor 5; assay: Antagonist activity at human P2X5 receptor expressed in human 1321N1 cells assessed as reduction in intracellular Ca2+ influx incubated for 30 mins by Fura-2 AM based fluorescence assay; type: cell-based
[8] = target: T3, P2X purinoceptor 7 (Homo sapiens); assay: (§1) Antagonist activity at human P2X7 receptor expressed in human 1321N1 cells assessed as reduction in ethidium bromide dye uptake at 20 uM preincubated for 15 mins followed by BzATP addition and measured after 30 mins by Ethidium bromide dye based fluorescence plate reader analysis relative to control; type: cell-based; conditions: filed as antagonist, time 45.0 min
P2X purinoceptor 7 [9] = target: T6, P2X purinoceptor 7 (Homo sapiens, UniProt Q99572); assay: Antagonist activity at human P2X7 receptor expressed in human 1321N1 cells assessed as reduction in ethidium bromide dye uptake preincubated for 15 mins followed by BzATP addition and measured after 30 mins by Ethidium bromide dye based fluorescence plate reader analysis; type: cell-based
T6 sequence (Q99572 whole entry): T3 sequence (whole entry)

P2X purinoceptor 7 [10] = target: T6, P2X purinoceptor 7; assay: Antagonist activity at human P2X7 receptor expressed in human 1321N1 cells assessed as reduction in intracellular Ca2+ influx incubated for 30 mins by Fura-2 AM based fluorescence assay; type: cell-based
[11] = target: T3, P2X purinoceptor 7 (Homo sapiens); assay: Negative allosteric modulation activity at human P2X7 receptor expressed in human 1321N1 cells assessed as ATP induced calcium response by measuring maximal ATP efficacy at 100 nM relative to control; type: cell-based; conditions: filed as negative allosteric modulator
P2X purinoceptor 7 [12] = target: T6, P2X purinoceptor 7; assay: Negative allosteric modulation activity at human P2X7 receptor expressed in human 1321N1 cells assessed as reduction in ethidium bromide dye uptake preincubated for 15 mins followed by BzATP addition and measured after 30 mins by Ethidium bromide dye based fluorescence plate reader analysis; type: cell-based
[13] = target: T3, P2X purinoceptor 7 (Homo sapiens); assay: Negative allosteric modulation activity at human P2X7 receptor expressed in human 1321N1 cells assessed as ATP induced calcium response by measuring maximal ATP efficacy at 40 nM relative to control; type: cell-based; conditions: filed as negative allosteric modulator
[14] = target: T2, P2X purinoceptor 4 (Homo sapiens); assay: Negative allosteric modulation activity at human P2X4 receptor expressed in human 1321N1 cells assessed as reduction in intracellular Ca2+ influx incubated for 30 mins by Fura-2 AM based fluorescence assay relative to control; type: cell-based
[15] = target: T3, P2X purinoceptor 7 (Homo sapiens); assay: as §1, with “Negative allosteric modulation” for “Antagonist”; type: cell-based; conditions: filed as negative allosteric modulator, time 45.0 min
[16] = target: T1, P2X purinoceptor 2 (Homo sapiens); assay: Negative allosteric modulation activity at human P2X2 receptor expressed in human 1321N1 cells assessed as reduction in intracellular Ca2+ influx incubated for 30 mins by Fura-2 AM based fluorescence assay relative to control; type: cell-based
P2X purinoceptor 5 [17] = target: T4, P2X purinoceptor 5; assay: Negative allosteric modulation activity at human P2X5 receptor expressed in human 1321N1 cells assessed as reduction in intracellular Ca2+ influx incubated for 30 mins by Fura-2 AM based fluorescence assay relative to control; type: cell-based
[18] = target: T3, P2X purinoceptor 7 (Homo sapiens); assay: Negative allosteric modulation activity at human P2X7 receptor expressed in human 1321N1 cells assessed as ATP induced calcium response by measuring maximal ATP efficacy at 200 nM relative to control; type: cell-based

inhibition [2]	inhibition [4]	inhibition [5]	inhibition (P2X purinoceptor 5 [6])	SMILES	inhibition at 50 µM [1]	inhibition at 50 µM (HeLa)	cytotoxicity at 24 h, 50 µM [3]	other results
22%	35%	18%	16%	Cc1cc(Br)ccc1NC(=S)NC(=O)C12CC3CC(CC(C3)C1)C2	2.2%	4.1%	7.02%	–
–	–	–	32%	O=C(NC(=S)Nc1cc([N+](=O)[O-])ccc1Cl)C12CC3CC(CC(C3)C1)C2	10.4%	8.66%	6.31%	–
–	–	11%	16%	O=C(NC(=S)Nc1cc(Br)ccc1Br)C12CC3CC(CC(C3)C1)C2	7.43%	4.15%	10.7%	inhibition ([2]; filed as antagonist): 41%; IC50 (P2X purinoceptor 4): 8.34 µM
–	–	–	–	O=C(NC(=S)Nc1cc(Cl)c(O)c(Cl)c1)C12CC3CC(CC(C3)C1)C2	6.18%	5.4%	1.06%	IC50 (P2X purinoceptor 5 [7]): 12.3 µM
–	–	–	–	COc1ccc(NC(=S)NC(=O)C23CC4CC(CC(C4)C2)C3)cc1OC	13.5%	14.3%	7.2%	IC50 (P2X purinoceptor 5 [7]): 16.5 µM
38%	33%	–	26%	O=C(NC(=S)Nc1ccc(O)cc1)C12CC3CC(CC(C3)C1)C2	7.21%	8.66%	3.02%	Emax [8]: 68%; IC50 (P2X purinoceptor 7 [9]): 1.26 µM
18%	–	–	–	NS(=O)(=O)c1ccccc1NC(=S)NC(=O)C12CC3CC(CC(C3)C1)C2	12.9%	9.5%	3.77%	IC50 (P2X purinoceptor 4): 4.19 µM; Emax [8]: 58%; IC50 (P2X purinoceptor 7 [9]): 0.796 µM; IC50 (P2X purinoceptor 7 [10]): 0.699 µM; inhibition (P2X purinoceptor 5 [6]; filed as antagonist): 43%
2%	0%	10%	5%	CN(C)CCCNC(=S)NC(=O)C12CC3CC(CC(C3)C1)C2	5.45%	7.21%	10.4%	–
33%	36%	19%	–	O=C(NC(=S)Nc1cccc(O)c1)C12CC3CC(CC(C3)C1)C2	5.67%	11%	6.95%	inhibition (P2X purinoceptor 5 [6]; filed as antagonist): 44%
–	32%	0%	25%	COc1ccc(NC(=S)NC(=O)C23CC4CC(CC(C4)C2)C3)cc1	4.56%	8.01%	10.6%	–
12%	20%	11%	15%	O=C(O)C12CC3CC(CC(C3)C1)C2	–	–	–	–
13%	–	–	25%	O=C(NC(=S)Nc1cccnc1Cl)C12CC3CC(CC(C3)C1)C2	11.4%	5.21%	4.95%	Emax [8]: 63%; IC50 (P2X purinoceptor 7 [9]): 0.155 µM
–	–	–	–	Cc1ccc(NC(=S)NC(=O)C23CC4CC(CC(C4)C2)C3)c(Br)c1	7.29%	15.4%	9.46%	IC50 (P2X purinoceptor 5 [7]): 9.04 µM
–	38%	15%	–	COc1cccc(NC(=S)NC(=O)C23CC4CC(CC(C4)C2)C3)c1	6.53%	7.21%	13.2%	inhibition (P2X purinoceptor 5 [6]; filed as antagonist): 45%
–	–	–	–	CC(C)c1cc(Br)c(NC(=O)Nc2cccnc2)c(Br)c1	20.2%	9.12%	2.85%	–
33%	–	–	–	O=C(NC(=S)Nc1ccccc1O)C12CC3CC(CC(C3)C1)C2	10.3%	8.6%	4.22%	inhibition (P2X purinoceptor 5 [6]; filed as antagonist): 41%
5%	–	–	20%	O=C(NC(=S)Nc1cc(Br)cc(C(F)(F)F)c1)C12CC3CC(CC(C3)C1)C2	5.37%	11.9%	6.85%	IC50 (P2X purinoceptor 4): 4.53 µM; IC50 (P2X purinoceptor 7 [10]): 4.02 µM
–	–	–	–	Cc1ccc(C(=O)Nc2ccc(S(=O)(=O)O)c3cc(S(=O)(=O)O)cc(S(=O)(=O)O)c23)cc1NC(=O)c1cccc(NC(=O)Nc2cccc(C(=O)Nc3cc(C(=O)Nc4ccc(S(=O)(=O)O)c5cc(S(=O)(=O)O)cc(S(=O)(=O)O)c45)ccc3C)c2)c1 [SURAMIN]	30.6%	28.7%	48%	–
35%	21%	–	–	O=C(NC(=S)Nc1ccc(Br)cc1)C12CC3CC(CC(C3)C1)C2	5.4%	7.19%	13.7%	inhibition (P2X purinoceptor 5 [6]; filed as antagonist): 42%
–	–	–	–	O=C(NC(=S)Nc1cccc2cccnc12)C12CC3CC(CC(C3)C1)C2	9.12%	6.22%	5.05%	Emax [11]: 59%; IC50 (P2X purinoceptor 7 [12]): 0.068 µM; Emax [13]: 78%; inhibition [14]: 25%; Emax [15]: 42%; inhibition [16]: 15%; inhibition (P2X purinoceptor 5 [17]): 32%; Emax [18]: 31%
